≈ marks a conversion by molar mass, not a printed value.
Tests used:
[1] = test system: MreB; details: P. aeruginosa; background statement; cited from earlier work
[2] = biological target: T1, MexAB-OprM efflux transporter (Pseudomonas aeruginosa, UniProt P52002); details: wild-type P. aeruginosa, background statement; cited from earlier work
T1 construct: MexAB-OprM efflux transporter present in wild-type P. aeruginosa; endogenous in cells; host or cells: wild-type P. aeruginosa

[3] = test system: K. pneumoniae ATCC 10031; experiment: Intrinsic MIC assay (broth microdilution), K. pneumoniae; format: cell-based, Klebsiella pneumoniae; details: Klebsiella pneumoniae, ATCC10031; K. pneumoniae ATCC 10031; read-out: Intrinsic MIC
Method: (§1) MIC assays were conducted in accordance with Clinical and Laboratory Standards Institute (CLSI) guidelines for broth microdilution.
(§2) The intrinsic MIC of the experimental EPIs was tested with the method described. The 2-fold serial dilution begins with 100 μg/mL of tested compound in the first column of the 96-well plates. The following Gram-negative bacterial strains were included in these assays: • Escherichia coli ATCC 25922 • Klebsiella pneumoniae ATCC 13883 and ATCC 10031 • Pseudomonas aeruginosa ATCC 27853. • Pseudomonas aeruginosa PAO1 • Acinetobacter baumannii ATCC 19606

[4] = test system: P. Aeruginosa PAO1; experiment: Intrinsic MIC assay (broth microdilution), P. aeruginosa PAO1; format: cell-based, Pseudomonas aeruginosa; details: Pseudomonas aeruginosa, 18 h; P. Aeruginosa PAO1, without EPI; read-out: Intrinsic MIC
Method: as §1, §2

[5] = test system: E. coli ATCC 25922; experiment: Intrinsic MIC assay (broth microdilution), E. coli; format: cell-based, Escherichia coli; details: Escherichia coli, ATCC25922; E. coli ATCC 25922; read-out: Intrinsic MIC
Method: as §1, §2

[6] = test system: P. Aeruginosa PAO1; experiment: MIC assay in the presence of a bacterial efflux pump inhibitor (EPI), P. aeruginosa PAO1; format: cell-based, Pseudomonas aeruginosa; details: in the presence of 12.5 μg/ml of N-(((2S,4R)-4-(aminomethyl)pyrrolidin-2-yl)methyl)-6-(4-fluorophenyl)-1H-indole-2-carboxamide
Method: The ability of a compound to produce an antibiotic effect can be determined using a method as described in Example 11. Data for representative compounds used in combination with the bacterial efflux pump inhibitor (EPI) N-(((2S,4R)-4-(aminomethyl)pyrrolidin-2-yl)methyl)-6-(4-fluorophenyl)-1H-indole-2-carboxamide is shown in Table 1.
as §1
The EPI assay for the purposes of these studies represents a MIC assay in which the MIC of the antibiotic against the bacteria is tested in the presence of an experimental efflux pump inhibitor (EPI). The highest concentration of the EPI present in the assay typically is ½ of the intrinsic MIC of the compound. […] Using serial dilutions of the EPI, its enhancement of antibiotic activity was then evaluated. The relative EPI activity was decided by comparing the MIC of the antibiotic in the presence of the EPI compound with the intrinsic MIC of the antibiotic alone. For comparative purposes, we generally used EPIs at concentration of 12.5 and 6.25 μg/ml against varying concentration of our test antibiotic.

[7] = test system: A. baumannii ATCC 19606; experiment: Intrinsic MIC assay (broth microdilution), A. baumannii; format: cell-based, Acinetobacter baumannii; details: Acinetobacter baumannii, ATCC19606; A. baumannii ATCC 19606; read-out: Intrinsic MIC
Method: as §1, §2

T1 sequence (P52477 24-383): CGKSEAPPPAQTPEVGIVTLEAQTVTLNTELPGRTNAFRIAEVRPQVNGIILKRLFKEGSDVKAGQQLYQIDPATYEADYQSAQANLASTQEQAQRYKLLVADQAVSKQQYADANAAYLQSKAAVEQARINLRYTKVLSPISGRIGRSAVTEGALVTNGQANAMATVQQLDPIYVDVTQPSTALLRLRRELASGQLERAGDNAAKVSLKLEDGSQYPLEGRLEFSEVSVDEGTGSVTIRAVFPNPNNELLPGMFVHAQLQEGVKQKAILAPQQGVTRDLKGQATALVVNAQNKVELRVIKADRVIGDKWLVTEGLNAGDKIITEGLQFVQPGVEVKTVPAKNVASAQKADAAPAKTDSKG
T1 sequence (P52002 whole entry): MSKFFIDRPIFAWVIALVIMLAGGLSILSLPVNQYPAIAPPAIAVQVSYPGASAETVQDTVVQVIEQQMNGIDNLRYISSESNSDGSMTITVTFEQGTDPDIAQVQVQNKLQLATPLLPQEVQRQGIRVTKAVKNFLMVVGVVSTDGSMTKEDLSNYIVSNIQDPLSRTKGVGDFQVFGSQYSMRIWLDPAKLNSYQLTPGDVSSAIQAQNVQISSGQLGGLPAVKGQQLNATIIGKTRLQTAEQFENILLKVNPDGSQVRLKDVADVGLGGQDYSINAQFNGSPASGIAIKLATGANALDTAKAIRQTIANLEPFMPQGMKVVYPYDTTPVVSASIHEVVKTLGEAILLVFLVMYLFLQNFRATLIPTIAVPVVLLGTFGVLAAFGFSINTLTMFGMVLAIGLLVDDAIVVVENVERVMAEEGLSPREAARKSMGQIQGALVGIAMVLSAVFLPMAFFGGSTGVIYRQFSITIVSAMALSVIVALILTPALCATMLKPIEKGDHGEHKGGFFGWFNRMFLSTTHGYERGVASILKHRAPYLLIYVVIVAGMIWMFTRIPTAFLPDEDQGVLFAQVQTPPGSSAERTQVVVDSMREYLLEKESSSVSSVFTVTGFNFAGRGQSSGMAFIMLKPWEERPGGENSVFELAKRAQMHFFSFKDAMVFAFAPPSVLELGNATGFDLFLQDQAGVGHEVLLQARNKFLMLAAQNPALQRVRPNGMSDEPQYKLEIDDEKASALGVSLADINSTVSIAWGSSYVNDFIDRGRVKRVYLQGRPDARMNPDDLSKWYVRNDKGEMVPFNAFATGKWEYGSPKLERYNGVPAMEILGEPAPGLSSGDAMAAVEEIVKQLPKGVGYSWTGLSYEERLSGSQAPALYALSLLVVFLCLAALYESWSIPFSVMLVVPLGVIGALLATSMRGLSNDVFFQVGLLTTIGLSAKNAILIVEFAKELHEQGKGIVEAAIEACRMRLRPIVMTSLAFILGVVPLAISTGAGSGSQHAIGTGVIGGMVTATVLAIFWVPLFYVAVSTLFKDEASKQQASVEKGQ
T1 sequence (Q51487 18-485, further chain): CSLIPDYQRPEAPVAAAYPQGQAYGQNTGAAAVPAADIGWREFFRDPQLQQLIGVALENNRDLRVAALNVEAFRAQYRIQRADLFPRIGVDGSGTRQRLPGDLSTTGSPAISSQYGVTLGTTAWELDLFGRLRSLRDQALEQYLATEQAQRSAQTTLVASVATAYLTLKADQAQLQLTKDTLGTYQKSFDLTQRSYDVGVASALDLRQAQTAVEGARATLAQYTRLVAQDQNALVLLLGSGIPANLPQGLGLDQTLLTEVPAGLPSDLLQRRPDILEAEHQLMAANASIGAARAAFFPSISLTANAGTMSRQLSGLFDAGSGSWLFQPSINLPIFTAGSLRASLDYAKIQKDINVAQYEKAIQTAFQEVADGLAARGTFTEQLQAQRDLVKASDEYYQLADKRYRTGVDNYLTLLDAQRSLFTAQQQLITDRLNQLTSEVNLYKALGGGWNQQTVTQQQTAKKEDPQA

Row | Structure (SMILES) | MIC [3] [µg/mL] | MIC [4] [µg/mL] | MIC [5] [µg/mL] | MIC in the Presence of EPI* [6] [µg/mL] | MIC [7] [µg/mL] | MreB inhibition [1] | Efflux transporter substrate [2]
1 | NC1CCCc2c1[nH]c1ccc(Br)cc21 (stereo not shown) [CBR-4830] | – | – | – | – | – | effective MreB inhibitor | substrate for the MexAB-OprM efflux transporter
2 | CC(NCCCNC(=O)C1CCCCC1)c1cc2cc(Br)ccc2[nH]1 (stereo not shown) [Example 31, N-(3-((1-(5-Bromo-1H-indol-2-yl)ethyl)amino)propyl)cyclohexanecarboxamide] | 16 (≈ 39.4 µM) | > 256 | 64 (≈ 157 µM) | 128 | 64 (≈ 157 µM) | – | –
3 | CCCCNC(C)c1cc2cc(Br)ccc2[nH]1 (stereo not shown) [Example 32, N-(1-(5-Bromo-1H-indol-2-yl)ethyl)butan-1-amine] | 16 (≈ 54.2 µM) | > 256 | 32 (≈ 108 µM) | 64 | 64 (≈ 217 µM) | – | –
4 | CC(NCCc1ccccc1)c1cc2cc(Br)ccc2[nH]1 (stereo not shown) [Example 33, 1-(5-Bromo-1H-indol-2-yl)-N-phenethylethan-1-amine] | 4 (≈ 11.7 µM) | > 256 | 16 (≈ 46.6 µM) | 32 | 32 (≈ 93.2 µM) | – | –
5 | NC(CCc1ccccc1)c1cc2cc(Br)ccc2[nH]1 (stereo not shown) [Example 36, 1-(5-Bromo-1H-indol-2-yl)-3-phenylpropan-1-amine] | 8 (≈ 24.3 µM) | > 256 | 16 (≈ 48.6 µM) | 32 | 32 (≈ 97.2 µM) | – | –
6 | CC(NCCCC(=O)Nc1ccc(Cl)c(Cl)c1)c1cc2cc(Br)ccc2[nH]1 (stereo not shown) [Example 37, 4-((1-(5-Bromo-1H-indol-2-yl)ethyl)amino)-N-(3,4-dichlorophenyl)butanamide] | 4 (≈ 8.52 µM) | > 256 | 16 (≈ 34.1 µM) | 16 | 32 (≈ 68.2 µM) | – | –
7 | CC(NCCCCOc1ccc(Cl)c(Cl)c1)c1cc2cc(Br)ccc2[nH]1 (stereo not shown) [Example 38, N-(1-(5-Bromo-1H-indol-2-yl)ethyl)-4-(3,4-dichlorophenoxy)butan-1-amine] | 4 (≈ 8.77 µM) | > 256 | 16 (≈ 35.1 µM) | 16 | 64 (≈ 140 µM) | – | –

Continued by falling MIC [3], values first:

Row | MIC [3] [µg/mL] | MIC [4] [µg/mL] | MIC [5] [µg/mL] | MIC in the Presence of EPI* [6] [µg/mL] | MIC [7] [µg/mL] | Structure (SMILES) | MreB inhibition [1] | Efflux transporter substrate [2]
8 | 128 (≈ 413 µM) | > 256 | 256 (≈ 825 µM) | > 256 | 256 (≈ 825 µM) | CCNCCNC(C)c1cc2cc(Br)ccc2[nH]1 (stereo not shown) [Example 39, N^1-(1-(5-Bromo-1H-indol-2-yl)ethyl)-N^2-ethylethane-1,2-diaminehydrochloricacid] | – | –
9 | 64 (≈ 218 µM) | > 256 | 128 (≈ 437 µM) | 256 | 128 (≈ 437 µM) | CC(NCC1CC1)c1cc2cc(Br)ccc2[nH]1 (stereo not shown) [Example 35, 1-(5-Bromo-1H-indol-2-yl)-N-(cyclopropylmethyl)ethan-1-amine] | – | –
10 | 4 (≈ 8.52 µM) | > 256 | 32 (≈ 68.2 µM) | 32 | 64 (≈ 136 µM) | CC(NCCCNC(=O)c1ccc(Cl)c(Cl)c1)c1cc2cc(Br)ccc2[nH]1 (stereo not shown) [Example 30, N-(3-((1-(5-Bromo-1H-indol-2-yl)ethyl)amino)propyl)-3,4-dichlorobenzamide] | – | –
11 | 4 (≈ 8.79 µM) | > 256 | 32 (≈ 70.3 µM) | 32 | 64 (≈ 141 µM) | CC(NCCNC(=O)c1ccc(Cl)c(Cl)c1)c1cc2cc(Br)ccc2[nH]1 (stereo not shown) [Example 34, N-(2-((1-(5-Bromo-1H-indol-2-yl)ethyl)amino)ethyl)-3,4-dichlorobenzamide] | – | –
